Assay results: patent US12427131B2, “Stimulators and/or activators of soluble guanylate cyclase (sGC) in combination with an inhibitor of neutral endopeptidase (NEP inhibitor) and/or an angiotensin AII antagonist and the use thereof” (BAYER PHARMA AKTIENGESELLSCHAFT, priority 2015, dated 2025)

Assays:
[1] = system: conscious rats; assay: Radiotelemetric measurement of blood pressure and heart rate of conscious rats; assay type: in vivo, rat
Description: Radiotelemetric Measurement of Blood Pressure and Heart Rate of Conscious Rats
A commercially available telemetry system from Data Sciences International DSI, USA, was employed for the measurements on conscious rats (Wistar strain Unilever/WU or Spontaneous Hypertensive Rat/SHR) described below. The system consists of 3 main components: (1) implantable transmitters (PhysioTel® telemetry transmitter), (2) receivers (PhysioTel® receiver), which are linked via a multiplexer (DSI Data Exchange Matrix) to a (3) data acquisition computer. The telemetry system makes it possible to continuously record blood pressure, heart rate and body motion of conscious animals in their usual habitat.
The studies are conducted on adult female rats with a body weight of >200 g. After transmitter implantation, the experimental animals are housed singly in type III Makrolon® cages. They have free access to standard feed and water. The day/night rhythm in the test laboratory is set by changing the illumination of the room.
The telemetry transmitters used (e.g. PA-C40 HD-S10, DSI) are surgically implanted under aseptic conditions in the experimental animals at least 14 days before the first experimental use.
For the implantation, the fasted animals are anesthetized with isoflurane (IsoFlo®, Abbott, initiation 5%, maintenance 2%) and shaved and disinfected over a large area of their abdomens. After the abdominal cavity has been opened along the linea alba, the liquid-filled measuring catheter of the system is inserted into the descending aorta in the cranial direction above the bifurcation and fixed with tissue glue (Vetbond™, 3M). The transmitter housing is fixed intraperitoneally to the abdominal wall muscle, and the wound is closed layer by layer. Post-operatively, an antibiotic (Ursocyclin® 10%, 60 mg/kg s.c., 0.06 ml/100 g body weight, Serumwerk Bernburg AG, Germany) for infection prophylaxis and an analgesic (Rimadyl®, 4 mg/kg s.c., Pfizer, Germany) are administered.
Unless stated otherwise, the substances to be studied are administered orally to a group of animals in each case (n=6). In accordance with an administration volume of 2 ml/kg of body weight, the test substances are dissolved in suitable solvent mixtures. A solvent-treated group of animals is used as control.
The telemetry measuring system is configured for 24 animals.
Each of the instrumented rats living in the system is assigned a separate receiving antenna (RPC-1 Receiver, DSI). The implanted senders can be activated externally via an installed magnetic switch and are switched to transmission during the pre-run of the experiment. The signals emitted can be detected online by a data acquisition system (Dataquest™ A.R.T. for Windows, DSI or Ponemah, DSI) and processed accordingly.
In the standard procedure, the following are measured for 10-second periods in each case: (1) systolic blood pressure (SBP), (2) diastolic blood pressure (DBP), (3) mean arterial pressure (MAP), (4) heart rate (HR) and (5) activity (ACT). These parameters are measured over 24 hours after administration.
The acquisition of measurements is repeated under computer control at 5-minute intervals. The source data obtained as absolute values are corrected in the diagram with the currently measured barometric pressure (Ambient Pressure Reference Monitor, APR-1, DSI).
After the end of the experiment, the acquired individual data are sorted using the analysis software (Dataquest™ A.R.T. 4.1 Analysis or Ponemah, DSI). The 2 hour time point before substance administration is assumed as the blank value.
The data are smoothed over a presettable period by determination of the means (30 minute mean).

[2] = healthy subjects and hypertensive patients; cited from earlier work
[3] = patients with heart failure, phase III; cited from earlier work
[4] = compound of the formula (6) alone, oral 0.3 mg/kg
[5] = compound of the formula (29) alone, oral 3 mg/kg
[6] = compound of the formula (29) alone, oral 10 mg/kg

COC(=O)Nc1c(N)nc(-c2nn(Cc3ccccc3F)c3ncc(F)cc23)nc1N [formula (6), methyl {4,6-diamino-2-[5-fluoro-1-(2-fluorobenzyl)-1H-pyrazolo[3,4-b]pyridine-3-yl]pyrimidin-5-yl}carbamate]
decrease in the mean arterial blood pressure [1, 4]: ca. −10%
heart rate [1, 4]: transient increase in heart rate
hemodynamic effects (blood pressure, heart rate) ([1]; compound of the formula (6) alone, oral dose 0.1 mg/kg): no hemodynamic effects

C[C@H]([C@H](C(=O)Nc1cc(C(CC(=O)O)C2CC2)ccc1Cl)c1ccc(Cl)cc1)C(F)(F)F (stereo partly drawn) [formula (29), 3-(4-chloro-3-{[(2S,3R)-2-(4-chlorophenyl)-4,4,4-trifluoro-3-methylbutanoyl]amino}phenyl)-3-cyclopropylpropanoic acid]
heart rate ([1]; compound of the formula (29) alone, oral 1 mg/kg): reflex tachycardia
decrease in the mean arterial blood pressure [1, 5]: ca. −10%
heart rate [1, 5]: associated reflex tachycardia
decrease in the mean arterial blood pressure [1, 6]: ~15%
heart rate [1, 6]: associated reflex tachycardia

trisodium [3-((1S,3R)-1-biphenyl-4-ylmethyl-3-ethoxycarbonyl-1-butylcarbamoyl)propionate-(S)-3′-methyl-2′-(pentanoyl{2″-(tetrazol-5-ylate)biphenyl-4′-ylmethyl}amino)butyrate] hemipentahydrate [LCZ696]
ANP and cGMP [2]: increase in ANP and cGMP
renin and angiotensin [2]: compensatory increase in renin and angiotensin
risk of death and hospitalization [3]: reduction in the risk of death and hospitalization
